Calls of active or inactive are those of the source. No rule for the calls is given here.
Test system: CCRIS mutagenicity, Ames/micronucleus/aberration tests
Assay: CCRIS mutagenicity studies
[1] = Test System: AMES SALMONELLA TYPHIMURIUM, Strain/Indicator: TA98, Metabolic Activation: HAMSTER, LIVER, S-9, AROCLOR 1254 (10%), Method: PREINCUBATION
[2] = Test System: AMES SALMONELLA TYPHIMURIUM, Strain/Indicator: TA98, Metabolic Activation: NONE, Method: PREINCUBATION
[3] = Test System: AMES SALMONELLA TYPHIMURIUM, Strain/Indicator: TA98, Metabolic Activation: RAT, LIVER, S-9, AROCLOR 1254 (10%), Method: PREINCUBATION
[4] = Test System: AMES SALMONELLA TYPHIMURIUM, Strain/Indicator: TA100, Metabolic Activation: HAMSTER, LIVER, S-9, AROCLOR 1254 (10%), Method: PREINCUBATION
[5] = Test System: AMES SALMONELLA TYPHIMURIUM, Strain/Indicator: TA100, Metabolic Activation: NONE, Method: PREINCUBATION
[6] = Test System: AMES SALMONELLA TYPHIMURIUM, Strain/Indicator: TA100, Metabolic Activation: RAT, LIVER, S-9, AROCLOR 1254 (10%), Method: PREINCUBATION
[7] = Test System: AMES SALMONELLA TYPHIMURIUM, Strain/Indicator: TA1535, Metabolic Activation: HAMSTER, LIVER, S-9, AROCLOR 1254 (10%), Method: PREINCUBATION
[8] = Test System: AMES SALMONELLA TYPHIMURIUM, Strain/Indicator: TA1535, Metabolic Activation: NONE, Method: PREINCUBATION
[9] = Test System: AMES SALMONELLA TYPHIMURIUM, Strain/Indicator: TA1535, Metabolic Activation: RAT, LIVER, S-9, AROCLOR 1254 (10%), Method: PREINCUBATION
[10] = Test System: AMES SALMONELLA TYPHIMURIUM, Strain/Indicator: TA1537, Metabolic Activation: NONE, Method: PREINCUBATION
[11] = Test System: AMES SALMONELLA TYPHIMURIUM, Strain/Indicator: TA97, Metabolic Activation: HAMSTER, LIVER, S-9, AROCLOR 1254 (10%), Method: PREINCUBATION
[12] = Test System: AMES SALMONELLA TYPHIMURIUM, Strain/Indicator: TA97, Metabolic Activation: NONE, Method: PREINCUBATION
[13] = Test System: AMES SALMONELLA TYPHIMURIUM, Strain/Indicator: TA97, Metabolic Activation: RAT, LIVER, S-9, AROCLOR 1254 (10%), Method: PREINCUBATION

With BrCC(Br)C1CCC(Br)C(Br)C1 (centres undefined) the mutagenic call (End Point: IN VITRO CHROMOSOMAL ABERRATIONS, Test System: CHINESE HAMSTER LUNG CELLS (CHL), Metabolic Activation: NONE) was “inactive; negative”, the mutagenic call (End Point: IN VITRO CHROMOSOMAL ABERRATIONS, Test System: CHINESE HAMSTER LUNG CELLS (CHL), Metabolic Activation: RAT, LIVER, S-9, KC-400) was “active; positive (structural changes)” and the mutagenic call (End Point: IN VITRO CHROMOSOMAL ABERRATIONS, Test System: CHINESE HAMSTER OVARY CELLS (CHO), Metabolic Activation: NONE) was “inactive; negative”. The mutagenic call (End Point: IN VITRO CHROMOSOMAL ABERRATIONS, Test System: CHINESE HAMSTER OVARY CELLS (CHO), Metabolic Activation: RAT, LIVER, S-9, AROCLOR 1254) was “inactive; negative”, the mutagenic call (End Point: IN VITRO CHROMOSOMAL ABERRATIONS, Test System: CHO CELLS, Metabolic Activation: NONE) was “inactive; negative” and the mutagenic call (End Point: IN VITRO CHROMOSOMAL ABERRATIONS, Test System: CHO CELLS, Metabolic Activation: RAT, LIVER, S-9, AROCLOR 1254) was “inactive; negative”. For the same compound, the mutagenic call [1] was “inactive; negative”, the mutagenic call [2] was “inactive; negative” and the mutagenic call [3] was “inactive; negative”. The mutagenic call [4] was “inactive; negative”, the mutagenic call [5] was “inactive; negative” and the mutagenic call [6] was “inactive; negative”. For the same compound, the mutagenic call [7] was “inactive; negative”, the mutagenic call [8] was “inactive; negative” and the mutagenic call [9] was “inactive; negative”. For the same compound, the mutagenic call (Test System: AMES SALMONELLA TYPHIMURIUM, Strain/Indicator: TA1537, Metabolic Activation: HAMSTER, LIVER, S-9, AROCLOR 1254 (10%), Method: PREINCUBATION) was “inactive; negative”, the mutagenic call [10] was “inactive; negative” and the mutagenic call (Test System: AMES SALMONELLA TYPHIMURIUM, Strain/Indicator: TA1537, Metabolic Activation: RAT, LIVER, S-9, AROCLOR 1254 (10%), Method: PREINCUBATION) was “inactive; negative”. The mutagenic call (Test System: MOUSE LYMPHOMA, Strain/Indicator: L5178Y (TK+/TK-), Metabolic Activation: NONE, Method: SUSPENSION/PLATE) was “active; positive”.

With O=C(/C=C/c1ccc(O)cc1)c1ccc(O)cc1O the mutagenic call (Test System: Ames Salmonella typhimurium, Strain/Indicator: TA102, Metabolic Activation: None, Method: Preincubation) was “inactive; negative” and the mutagenic call (Test System: Ames Salmonella typhimurium, Strain/Indicator: TA102, Metabolic Activation: Rat, Liver, S-9, Aroclor 1254 in 0.154 M KCl, Method: Preincubation) was “active; positive”.

With Cc1c(/C=N/OCc2ccc(Cl)cc2Cl)c2cc([N+](=O)[O-])ccc2n1Cc1ccc(Cl)cc1 the mutagenic call (Test System: AMES SALMONELLA TYPHIMURIUM, Strain/Indicator: TA98, Metabolic Activation: NONE, Method: STANDARD PLATE) was “inactive; negative”, the mutagenic call (Test System: AMES SALMONELLA TYPHIMURIUM, Strain/Indicator: TA98, Metabolic Activation: RAT, LIVER, S-9, PHENOBARBITAL AND BETA-NAPHTHOFLAVONE, Method: STANDARD PLATE) was “inactive; negative” and the mutagenic call (Test System: AMES SALMONELLA TYPHIMURIUM, Strain/Indicator: TA100, Metabolic Activation: NONE, Method: STANDARD PLATE) was “inactive; negative”. The mutagenic call (Test System: AMES SALMONELLA TYPHIMURIUM, Strain/Indicator: TA100, Metabolic Activation: RAT, LIVER, S-9, PHENOBARBITAL AND BETA-NAPHTHOFLAVONE, Method: STANDARD PLATE) was “inactive; negative”.

With O=[N+]([O-])c1cccc(O)c1 the mutagenic call [11] was “inactive; negative”, the mutagenic call [12] was “inactive; negative” and the mutagenic call [13] was “inactive; negative”. For the same compound, the mutagenic call [1] was “inactive; negative”, the mutagenic call [3] was “inactive; negative” and the mutagenic call (Test System: AMES SALMONELLA TYPHIMURIUM, Strain/Indicator: TA98, Metabolic Activation: RAT, LIVER, S-9, KANECHLOR 500, Method: PREINCUBATION) was “active; positive”. For the same compound, the mutagenic call (Test System: AMES SALMONELLA TYPHIMURIUM, Strain/Indicator: TA98, Method: PREINCUBATION) was “inactive; negative”, the mutagenic call [4] was “inactive; negative” and the mutagenic call (Test System: AMES SALMONELLA TYPHIMURIUM, Strain/Indicator: TA100, Metabolic Activation: RAT, LIVER, S-9, AROCLOR 1254 (5, 10 OR 30%), Method: PREINCUBATION) was “inactive; negative”. For the same compound, the mutagenic call (Test System: AMES SALMONELLA TYPHIMURIUM, Strain/Indicator: TA100, Metabolic Activation: RAT, LIVER, S-9, KANECHLOR 500, Method: PREINCUBATION) was “active; positive”, the mutagenic call (Test System: AMES SALMONELLA TYPHIMURIUM, Strain/Indicator: TA100, Method: PREINCUBATION) was “inactive; negative” and the mutagenic call [7] was “inactive; negative”. For the same compound, the mutagenic call [8] was “inactive; negative”, the mutagenic call [9] was “inactive; negative” and the mutagenic call (Test System: AMES SALMONELLA TYPHIMURIUM, Strain/Indicator: TA1535, Method: PREINCUBATION) was “inactive; negative”. The mutagenic call [10] was “inactive; negative”, the mutagenic call (Test System: AMES SALMONELLA TYPHIMURIUM, Strain/Indicator: TA1537, Method: PREINCUBATION) was “inactive; negative” and the mutagenic call (Test System: AMES SALMONELLA TYPHIMURIUM, Strain/Indicator: TA1538, Metabolic Activation: NONE, Method: PREINCUBATION) was “inactive; negative”. The mutagenic call (Test System: AMES SALMONELLA TYPHIMURIUM, Strain/Indicator: TA1538, Method: PREINCUBATION) was “inactive; negative”.

In the case of Cc1cccc(C#N)c1, the mutagenic call [11] is reported as “inactive; negative”, the mutagenic call (Test System: AMES SALMONELLA TYPHIMURIUM, Strain/Indicator: TA97, Metabolic Activation: HAMSTER, LIVER, S-9, AROCLOR 1254 (30%), Method: PREINCUBATION) is reported as “inactive; negative” and the mutagenic call [12] is reported as “inactive; negative”. The mutagenic call [13] was “inactive; negative”, the mutagenic call (Test System: AMES SALMONELLA TYPHIMURIUM, Strain/Indicator: TA97, Metabolic Activation: RAT, LIVER, S-9, AROCLOR 1254 (30%), Method: PREINCUBATION) was “inactive; negative” and the mutagenic call [1] was “inactive; negative”. For the same compound, the mutagenic call (Test System: AMES SALMONELLA TYPHIMURIUM, Strain/Indicator: TA98, Metabolic Activation: HAMSTER, LIVER, S-9, AROCLOR 1254 (30%), Method: PREINCUBATION) was “inactive; negative”, the mutagenic call [2] was “inactive; negative” and the mutagenic call [3] was “inactive; negative”. For the same compound, the mutagenic call (Test System: AMES SALMONELLA TYPHIMURIUM, Strain/Indicator: TA98, Metabolic Activation: RAT, LIVER, S-9, AROCLOR 1254 (30%), Method: PREINCUBATION) was “inactive; negative”, the mutagenic call [4] was “inactive; negative” and the mutagenic call (Test System: AMES SALMONELLA TYPHIMURIUM, Strain/Indicator: TA100, Metabolic Activation: HAMSTER, LIVER, S-9, AROCLOR 1254 (30%), Method: PREINCUBATION) was “inactive; negative”. For the same compound, the mutagenic call [5] was “inactive; negative”, the mutagenic call [6] was “inactive; negative” and the mutagenic call (Test System: AMES SALMONELLA TYPHIMURIUM, Strain/Indicator: TA100, Metabolic Activation: RAT, LIVER, S-9, AROCLOR 1254 (30%), Method: PREINCUBATION) was “inactive; negative”. The mutagenic call [7] was “inactive; negative”, the mutagenic call (Test System: AMES SALMONELLA TYPHIMURIUM, Strain/Indicator: TA1535, Metabolic Activation: HAMSTER, LIVER, S-9, AROCLOR 1254 (30%), Method: PREINCUBATION) was “inactive; negative” and the mutagenic call [8] was “inactive; negative”. The mutagenic call [9] was “inactive; negative” and the mutagenic call (Test System: AMES SALMONELLA TYPHIMURIUM, Strain/Indicator: TA1535, Metabolic Activation: RAT, LIVER, S-9, AROCLOR 1254 (30%), Method: PREINCUBATION) was “inactive; negative”.
